Measured values reported in ChEMBL document CHEMBL3507680, “University of Dundee, Gates Library screen for HepG2 cell viability”.

Assay: Human HepG2 cell viability assay in 384 well format
Format: toxicity, cell-based
Set-up: dose 125 nL, time 70.5 hour; cytotoxicity at 70.5 h: concentration not given beside the values
Conditions: HepG2 cells, read-out: Inhibition

Row | SMILES | cytotoxicity at 70.5 h
1 | CC(C)N1CCC(N2CCN(C3CCCCC3)CC2CCO)CC1 (stereo not given) | -10.5%
2 | CC(O)CNCc1ccccc1C(F)(F)F (stereo not given) | -5.36%
3 | Cc1cc(CN2CCC(C3CCN(CC(C)C)CC3)C2)[nH]n1 (stereo not given) | -3.48%
4 | O=C(Cn1cccn1)N(CCO)CCSc1ccc(Cl)cc1 | -11.6%
5 | Cc1cc(C)c2c(NCc3nncn3C3CCCCC3)ncnc2n1 | -13.6%
6 | CC(C)c1nccn1C(C)C(=O)NC1CCOCC1 (stereo not given) | 2.76%
7 | Cc1nccn1-c1ccc(N2CCC(N[C@H](C)C(C)C)CC2)cc1 | 0.757%
8 | CCNc1ncc(C(=O)N[C@H](C(N)=O)c2ccccc2)cn1 | 24%
9 | COCCNc1nc(C)nc2c1CCN(C[C@H]1CC[C@@H](N)CC1)CC2 | 44.2%
10 | O=C(NCC(O)c1cccc(F)c1)C1CCN(C2CCCCC2)CC1 (stereo not given) | -16.4%
11 | CN(CCc1cn[nH]c1)Cc1nc(Cc2cccc(F)c2)no1 | 19%
12 | CCc1cc(N2CCN(c3cnccn3)CC2)n2nc(C)c(C)c2n1 | 10.7%
13 | COc1ccc(CCN2CC(c3nc(CSC)no3)CCC2=O)cc1 (stereo not given) | -4.88%
14 | COC(=O)[C@@H](NC(=O)c1coc(COc2cccc(F)c2)n1)C(C)C | 4.83%
15 | O=C1OCCN1Cc1cccc(F)c1C(F)(F)F | -5.55%
16 | CNc1ccc(Cl)cc1C(=O)N1CCC(Cn2cc(CN)nn2)CC1 | 1.05%
17 | CO[C@H]1CNC[C@@H]1NC(=O)c1cc(C)nc2ccc(C)cc12 | 12.1%
18 | Cc1nc(N(C)C)nc(-c2cccc(-c3ccn(CCCF)n3)c2)c1C | -10.9%
19 | CCOCCC(=O)N1Cc2cnc(-c3ccccc3)nc2C1 | -12.5%
20 | CCN(CC)Cc1nc(Cc2cccc(C(F)(F)F)c2)no1 | -7.89%
21 | COC[C@H]1CCCN1c1nccc(-c2cnn(-c3ccccc3C)c2)n1 | -1.39%
22 | CCS(=O)(=O)c1ncc(CN(C)Cc2ccc(C)o2)n1CCOC | 17.1%

Row | SMILES | cytotoxicity at 70.5 h
23 | CSCc1ccc(N2CCN(c3ccc(Cl)cn3)CC2)nc1 | 3.63%
24 | Cc1cccc(CN2CCN(c3nc(CO)cs3)CC2)c1 | -4.76%
25 | COCCN1CCC(CNC(=O)Nc2ccc(SC(F)(F)F)cc2)C1 (stereo not given) | -1.27%
26 | O=C(Nc1ccccc1CCc1ccccn1)NC1CCOCC1 | 0.573%
27 | Cc1cnc(NCC(C)(C)N2CCN(C)CC2)nc1 | -0.355%
28 | CCC[C@@H]1CN(Cc2ccc(C(F)(F)F)nc2)C[C@H]1C(=O)O | -8.04%
29 | CC(C)c1cc(C(=O)N2C[C@H]3CC[C@@H]2CN(Cc2ccccn2)C3)no1 | -7.13%
30 | COc1ccc2c(C)nc(N3CCN([C@H]4CCCC[C@@H]4O)CC3)nc2c1 | 18.8%
31 | COCCN1C(=O)[C@H]2CC[C@@H]1CN(S(=O)(=O)c1ccc(OC)cc1)C2 | -3.09%
32 | CCSc1ncc(-c2cc(C3CCC3)nc(N)c2C#N)cn1 | 9.11%
33 | Cc1ccccc1C1CCN(CCn2cc(-c3cccc(O)c3)nn2)C1 (stereo not given) | 29.4%
34 | O=C(CCN1CCCC1c1ccccn1)N1CCc2ccccc2C1 (stereo not given) | -16.1%
35 | CCOc1ccc(C(=O)CCC(=O)N(C)Cc2nc(C)c[nH]2)cc1C | -19.8%
36 | COc1ccccc1-c1ncc(CN2C[C@@H](N(C)C)[C@H](C(C)C)C2)s1 | -5.83%
37 | CS(=O)(=O)NCCC(=O)NCc1cccnc1-n1cnc2ccccc21 | -12.6%
38 | CN(C)C(=O)N1CCCC(C(=O)N(C)CCCc2cnn(C)c2)C1 (stereo not given) | -11.5%
39 | CN1CCN(C[C@@H]2CN(C(=O)CC3CCCCC3)C[C@@H]2CO)CC1 | 0.234%
40 | CN(CCCO)C(=O)c1cc(COc2ccc3c(c2)CCCC3)on1 | -7.55%
41 | CCc1c(O)nc(SCC(=O)Nc2ccccc2)n(C(C)CC)c1=O (stereo not given) | 22%
42 | O=C(CCc1nc(Cl)n[nH]1)NC1CCCN(C2Cc3ccccc3C2)C1 (stereo not given) | -9.23%
43 | Cc1nc(CNC(=O)c2cc(COc3ccccc3)[nH]n2)n[nH]1 | -5.91%
44 | COc1ccc(CN2CCCC2)cc1Oc1ccc(NC(C)=O)cc1 | -3.35%

Row | SMILES | cytotoxicity at 70.5 h
45 | Cc1cnc(C(=O)N2C[C@H]3CC[C@@H]2CN(c2cnccn2)C3)cn1 | -2.4%
46 | Cc1nc(N2CCN(C)CC2)ncc1C(=O)N1C[C@@H](C)[C@@](C)(O)C1 | 4.1%
47 | CN(C)[C@H]1CCCCN(Cc2cnc(NCc3ccccc3)nc2)C1 | -1.39%
48 | CN1CCCN(Cc2nc(Cc3ccccc3)n[nH]2)CC1 | -3.87%
49 | CC(C)N1CC2(CCC1=O)CCN(c1ccnc3ccccc13)CC2 | 41.8%
50 | CCc1nc(N)sc1C(=O)N1CCCC(COc2cccc(C)c2)C1 (stereo not given) | -0.442%
51 | CNC(=O)[C@@H]1C[C@@H](NC(=O)Cc2cccs2)CN1C1CCOCC1 | -3.22%
52 | c1cnc(N2CCC3(CCCN(CC4CCCCC4)C3)C2)cn1 (stereo not given) | -11.2%
53 | CSc1ccc(-c2nc(CN3CCNCC3C)c(C)o2)cc1 (stereo not given) | 3%
54 | CCOc1ccc(CCCC(=O)N2CCC(c3nnn[nH]3)CC2)cc1C | -11.9%
55 | CCCOC1CCCN(Cc2nc(-c3ccc(F)cc3F)oc2C)C1 (stereo not given) | -5.84%
56 | O=C(O)[C@@H]1CN(Cc2ccc(-c3cc[nH]n3)s2)C[C@H]1C1CC1 | -4.26%
57 | CN1CCC(CNC(=O)Cc2ccc(N(C)C)cc2)CC1 | -6.81%
58 | O=C(c1coc(CN2CCN(c3ccccc3F)CC2)n1)N1CC=CC1 | 15.2%
59 | Cc1ccccc1CN(CCN(C)C)Cc1ccc(O)c(C(=O)O)c1 | -8.19%
60 | Cn1cc2ncn(CCCOc3cccnc3)c(=O)c2n1 | 22.8%
61 | CN1CC2(CCCN(c3cnccn3)C2)OC1=O (stereo not given) | -9.73%
62 | CCCc1nnc(N2C[C@@H](C)[C@@](C)(O)C2)s1 | 12%
63 | Cc1ccccc1-n1cc(-c2ccnc(N3CCCC(CN)C3)n2)cn1 (stereo not given) | -7.47%
64 | CC(=O)NC1CCN(c2nc(N)nc3c2CCCC3)C1 (stereo not given) | -8.84%
65 | CC(O)C1CCN(Cc2cnc3c(-c4ccccc4)cnn3c2)CC1 (stereo not given) | -7.53%
66 | CN(C)C(C(=O)N1Cc2ccccc2C1)c1ccccc1F (stereo not given) | -2.59%

Row | SMILES | cytotoxicity at 70.5 h
67 | O=C(NCCc1c[nH]cn1)c1ccccc1C1CCNC1 (stereo not given) | 18%
68 | CCN(Cc1cnn(CC)c1)Cc1c(Cl)cncc1Cl | -2.13%
69 | O=C(c1ccncc1F)N1C[C@H]2CC[C@@H]1CN(Cc1cccnc1)C2 | -4.95%
70 | CCn1ncnc1C(C)NC(=O)C1CCN(C2CCCCC2)CC1 (stereo not given) | -7.1%
71 | COCCN1CCN(Cc2nccs2)[C@H]2CS(=O)(=O)C[C@H]21 | -2.69%
72 | Fc1ccc(C2(CNCCc3cccs3)CCOC2)cc1 (stereo not given) | -6.84%
73 | O=C(O)[C@@H]1CN(C(=O)CN2Cc3ccccc3C2)C[C@H]1c1ccncc1 | -1.71%
74 | O=C(O)[C@@H]1CN(C(=O)CCCc2ccc(F)cc2)C[C@H]1C1CC1 | -5.36%
75 | C=Cc1cccc(CN2C[C@@H](CN(C)CC)[C@@H](CO)C2)c1 | 3.14%
76 | O=C(O)c1ccc(CC2CCN(Cc3ccc(-c4cc[nH]n4)o3)C2)cc1 (stereo not given) | -5.13%
77 | Cc1cc(C)cc(-n2ncc3c2CCCC3N)c1 (stereo not given) | -5.06%
78 | COCCC(=O)N(Cc1cccnc1)CC1CCN(C2CCCC2)CC1 | 3.05%
79 | Cc1nc(N(CCC(N)=O)Cc2ccccc2)c2nc(C)oc2n1 | 9.6%
80 | O=C(NCCc1nc2ccccc2s1)c1coc(CN2CCOCC2)c1 | 5.71%
81 | CC(C)NC(=O)[C@@H]1C[C@@H](N)CN1C(=O)CCSCc1ccccc1 | 1.3%
82 | O=C(CN1CCCC1=O)NCc1cccnc1Oc1ccc(F)c(F)c1 | 1.24%
83 | C[C@@H]1CN(C(=O)CCN2CCOCC2)CC[C@]1(C)O | -2.33%
84 | Cc1ccc(CN(CCN(C)C)C(=O)Nc2cc(C(N)=O)ccc2C)s1 | 21.3%
85 | Cc1cc(-c2ccccc2Cl)nc(N)n1 | -8.36%
86 | N#Cc1cccc(CN2CCN(C(=O)C3CCC3)[C@@H]3CS(=O)(=O)C[C@@H]32)c1 | -4.15%
87 | O=S(=O)(c1ccc(-c2cnco2)cc1)N1CCC2(CCCNC2)C1 (stereo not given) | -1.83%
88 | CN1CCC(N2CC[C@@H]3[C@@H](CCC(=O)N3CCC3=CCCCC3)C2)CC1 | -1.35%

Row | SMILES | cytotoxicity at 70.5 h
89 | COc1nccnc1N1CCC2(CC1)C(=O)N(C)c1ccccc12 | -2.17%
90 | O=C(c1n[nH]c2c1CCC2)N1CCCC1c1nc(-c2ccccc2)no1 (stereo not given) | -1.83%
91 | CN(C)c1ccc(C2CC(=O)Nc3c2cnn3Cc2ccco2)cc1 (stereo not given) | -7.08%
92 | CC(C)(C)C1CCC(NCCN2CCOCC2)CC1 (stereo not given) | -5.37%
93 | O=C(C1CCC1)N1CCN(Cc2cccnc2)[C@H]2CS(=O)(=O)C[C@H]21 | -2.54%
94 | CC(Cc1cn(CCc2nc(N)cc(O)n2)nn1)c1ccccc1 (stereo not given) | -11.4%
95 | CN(C)C1CCN(Cc2cnc(S(C)(=O)=O)n2CC2CCCCC2)C1 (stereo not given) | -7.41%
96 | CCN1CCCC(C)(C(=O)NCCc2n[nH]c(=O)[nH]2)C1 (stereo not given) | -3.84%
97 | Cc1ccc(C)c2c(O)cc(CNCCNC(=O)C(C)C)nc12 | -6.05%
98 | Cc1cccnc1CN1CCOC(Cc2cccc3ccccc23)C1 (stereo not given) | -6.62%
99 | CCOCC1(CNCc2cc(O)c3cc(C)ccc3n2)CC1 | -1.7%
100 | Cn1c(CCC(=O)N2CCCC3(CNC(=O)O3)C2)nc2cccnc21 (stereo not given) | -14.8%
101 | COc1ccc(Oc2ncccc2C(F)(F)F)cc1CN1CCCC1 | 14%
102 | COCCN1CCC(CN(CC2CCCO2)C(=O)CCC(F)(F)F)CC1 (stereo not given) | -2.11%
103 | CC(C)c1cc(C(=O)N2CCN(c3cccc(C(=O)O)c3)CC2)n(C)n1 | -13.2%
104 | CCc1cc(CN(C)C(=O)c2cc(=O)[nH]c(=O)[nH]2)on1 | -9.27%
105 | O=C1NCCCC12CCN(Cc1ccc(-c3ccccc3)s1)C2 (stereo not given) | 7.11%
106 | CCc1ccc(-c2cn(CCSc3ncn[nH]3)nn2)nc1 | -1.59%
107 | CCC(=O)Nc1cccc(OCC(=O)N(C)Cc2ccon2)c1 | 8.51%
108 | CC(C)N(CCNc1nc(C2CCCC2)nc2c1cnn2C)C(C)C | -1.41%
109 | COc1cccc(CC2(CO)CCCN(c3nccs3)C2)c1 (stereo not given) | -1.79%
110 | Cc1nc2ccc(-n3ncnc3[C@@H]3CCCN3S(C)(=O)=O)cc2s1 | 12.3%
